Measurements: patent US8501446B2 (Vertex Pharmaceuticals Incorporated, priority 2004, dated 2013)

Columns and labels:
Format in all cases: biochemical
[1] = biological target: JAK2 (Homo sapiens, UniProt O60674); assay: JAK2 inhibition assay (radioactive enzyme assay, as for JAK3); details: average Ki if more than one value determined
Summary of the method: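 Both kinases: poly(Glu)4Tyr substrate in 100 mM HEPES pH 7.4, 10 mM MgCl2, 1 mM DTT. Run 20 min at 25° C, TCA stop, filter-bound ³³P counted, Ki(app) fitted after background subtraction. JAK3: final [γ-³³P]ATP 5 μM, enzyme added as 2 nM solution. JAK2: final poly(Glu)4Tyr 15 μM, final ATP 12 μM.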

[2] = biological target: ROCK (Homo sapiens, UniProt Q13464); assay: ROCK inhibition assay, standard radioactive enzyme assay ("33P")
Summary of the method: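 Radiometric kinase assay, 5 nM ROCK with 27 μM MBP and 13 μM [γ-33P]ATP in 100 mM HEPES pH 7.5, 10 mM MgCl2, 25 mM NaCl, 2 mM DTT, 1.5% DMSO; 2 h at room temperature, compounds 10 μM to 2.6 nM. TCA quench, filter capture, scintillation counting; background-subtracted data fit to Ki(app).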

[3] = biological target: T1, ROCK I (AA 6-553) (Homo sapiens, UniProt Q13464); assay: ROCK inhibition assay, standard coupled enzyme system ("Enzyme"); details: enzyme-linked assay
T1 construct: ROCK I (AA 6-553)
Summary of the method: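 ROCK I (AA 6-553) at 45 nM and 30 °C with 45 μM ATP and 200 μM peptide, in 100 mM HEPES pH 7.5, 10 mM MgCl2, 25 mM NaCl, 2 mM DTT, 1.5% DMSO. ADP output read by a PK/LDH coupled system: 2.5 mM PEP, 350 μM NADH, 30 μg/ml PK, 10 μg/ml LDH.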

[4] = biological target: Aurora-B (Homo sapiens, UniProt Q96GD4); assay: Aurora-B inhibition assay, radioactive assay; details: average Ki if more than one value determined
Summary of the method: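 Aurora-B protein substituted into the standard radioactive kinase format: reaction quenched with TCA, product captured on glass fiber filters and 33P counted. Ki(app) derived by fitting background-corrected counts against inhibitor concentration.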

[5] = biological target: T2, Aurora-C (Homo sapiens, UniProt Q9UQB9); assay: Aurora-C inhibition assay, coupled enzyme system as for Aurora-A; details: average Ki if more than one value determined
T2 sequence (Q9UQB9 1-309): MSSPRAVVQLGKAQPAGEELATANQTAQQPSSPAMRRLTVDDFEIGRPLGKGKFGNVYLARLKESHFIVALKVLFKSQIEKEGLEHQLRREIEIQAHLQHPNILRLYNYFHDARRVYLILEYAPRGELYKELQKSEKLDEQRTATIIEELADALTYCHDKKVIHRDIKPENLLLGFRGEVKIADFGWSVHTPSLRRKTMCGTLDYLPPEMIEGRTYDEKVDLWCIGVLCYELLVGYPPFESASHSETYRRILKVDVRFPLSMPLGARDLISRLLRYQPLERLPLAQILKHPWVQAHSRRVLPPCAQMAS
Summary of the method: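 Ki values came from nonlinear regression of 10-min reaction rates measured by a pyruvate kinase/lactate dehydrogenase-coupled readout at 30 °C. Compounds, titrated 0.002-30 μM, were preincubated 10 min with enzyme (Aurora-A 35 nM, or Aurora-C) and 800 μM LRRASLG in HEPES pH 7.5 buffer with 3% DMSO; ATP (200 μM) started reactions.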

Chain of JAK2 (O60674 whole entry, species assumed): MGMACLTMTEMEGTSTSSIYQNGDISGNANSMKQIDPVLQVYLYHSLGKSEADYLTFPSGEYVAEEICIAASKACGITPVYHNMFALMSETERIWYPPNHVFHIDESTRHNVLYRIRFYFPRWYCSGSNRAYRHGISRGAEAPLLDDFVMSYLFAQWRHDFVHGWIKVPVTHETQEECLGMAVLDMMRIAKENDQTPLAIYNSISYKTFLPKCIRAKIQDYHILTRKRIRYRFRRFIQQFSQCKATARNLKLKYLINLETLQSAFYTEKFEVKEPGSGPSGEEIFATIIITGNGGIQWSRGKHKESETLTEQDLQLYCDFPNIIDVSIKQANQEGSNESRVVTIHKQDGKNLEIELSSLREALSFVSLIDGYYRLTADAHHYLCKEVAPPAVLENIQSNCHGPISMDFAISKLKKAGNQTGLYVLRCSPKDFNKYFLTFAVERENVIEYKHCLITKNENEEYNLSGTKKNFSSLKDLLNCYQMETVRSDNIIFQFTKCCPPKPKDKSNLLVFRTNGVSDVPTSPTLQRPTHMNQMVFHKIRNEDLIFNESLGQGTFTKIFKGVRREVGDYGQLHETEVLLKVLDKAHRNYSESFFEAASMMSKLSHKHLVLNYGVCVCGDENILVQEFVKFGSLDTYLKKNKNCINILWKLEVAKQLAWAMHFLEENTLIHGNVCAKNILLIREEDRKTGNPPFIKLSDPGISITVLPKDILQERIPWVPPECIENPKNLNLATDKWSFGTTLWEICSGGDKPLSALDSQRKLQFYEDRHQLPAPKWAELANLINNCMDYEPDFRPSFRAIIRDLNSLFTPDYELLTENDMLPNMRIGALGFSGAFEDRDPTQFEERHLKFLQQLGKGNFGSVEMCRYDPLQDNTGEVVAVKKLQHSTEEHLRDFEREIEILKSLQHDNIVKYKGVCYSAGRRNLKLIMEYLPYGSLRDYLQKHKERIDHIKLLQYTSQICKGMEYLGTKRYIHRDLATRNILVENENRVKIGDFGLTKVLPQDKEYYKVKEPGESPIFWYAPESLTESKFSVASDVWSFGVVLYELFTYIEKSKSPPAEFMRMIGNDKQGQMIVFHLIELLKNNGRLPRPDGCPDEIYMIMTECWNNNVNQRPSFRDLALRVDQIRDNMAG
Chain of ROCK (Q13464 whole entry): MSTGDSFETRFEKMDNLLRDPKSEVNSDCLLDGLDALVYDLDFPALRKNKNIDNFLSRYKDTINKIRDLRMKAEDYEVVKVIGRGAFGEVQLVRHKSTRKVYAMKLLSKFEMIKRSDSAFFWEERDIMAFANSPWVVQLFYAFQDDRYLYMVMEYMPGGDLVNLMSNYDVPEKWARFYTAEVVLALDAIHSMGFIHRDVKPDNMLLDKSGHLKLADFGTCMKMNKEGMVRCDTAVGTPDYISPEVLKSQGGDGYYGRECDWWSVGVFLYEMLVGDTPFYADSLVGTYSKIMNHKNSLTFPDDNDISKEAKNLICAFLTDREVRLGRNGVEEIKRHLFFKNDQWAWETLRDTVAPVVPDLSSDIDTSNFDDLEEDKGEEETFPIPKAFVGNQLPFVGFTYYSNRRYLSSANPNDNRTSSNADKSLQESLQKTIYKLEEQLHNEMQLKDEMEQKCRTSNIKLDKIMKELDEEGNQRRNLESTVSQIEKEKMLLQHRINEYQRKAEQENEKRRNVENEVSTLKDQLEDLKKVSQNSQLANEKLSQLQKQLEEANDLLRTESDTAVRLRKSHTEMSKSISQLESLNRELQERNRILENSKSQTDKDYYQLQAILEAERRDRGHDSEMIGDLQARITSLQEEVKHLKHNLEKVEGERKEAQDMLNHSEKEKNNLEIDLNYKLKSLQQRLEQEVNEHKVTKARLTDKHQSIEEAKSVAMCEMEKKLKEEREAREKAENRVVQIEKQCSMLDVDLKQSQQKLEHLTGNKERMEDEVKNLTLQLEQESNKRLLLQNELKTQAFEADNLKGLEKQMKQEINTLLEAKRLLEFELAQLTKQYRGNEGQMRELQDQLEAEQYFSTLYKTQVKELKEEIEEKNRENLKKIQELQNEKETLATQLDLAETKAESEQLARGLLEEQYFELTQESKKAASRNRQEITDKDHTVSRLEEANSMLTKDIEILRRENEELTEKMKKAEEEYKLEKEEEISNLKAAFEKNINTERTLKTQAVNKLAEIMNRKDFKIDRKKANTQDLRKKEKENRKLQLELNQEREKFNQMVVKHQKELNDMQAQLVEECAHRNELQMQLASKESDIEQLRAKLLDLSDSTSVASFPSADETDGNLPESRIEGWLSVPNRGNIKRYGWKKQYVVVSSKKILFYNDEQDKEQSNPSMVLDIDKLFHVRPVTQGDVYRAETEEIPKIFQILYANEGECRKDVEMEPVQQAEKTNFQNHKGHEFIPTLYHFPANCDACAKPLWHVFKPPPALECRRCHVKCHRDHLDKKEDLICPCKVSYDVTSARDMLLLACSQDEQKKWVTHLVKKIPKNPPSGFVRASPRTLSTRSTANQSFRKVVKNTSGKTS
T1 sequence (Q13464 6-553, species assumed): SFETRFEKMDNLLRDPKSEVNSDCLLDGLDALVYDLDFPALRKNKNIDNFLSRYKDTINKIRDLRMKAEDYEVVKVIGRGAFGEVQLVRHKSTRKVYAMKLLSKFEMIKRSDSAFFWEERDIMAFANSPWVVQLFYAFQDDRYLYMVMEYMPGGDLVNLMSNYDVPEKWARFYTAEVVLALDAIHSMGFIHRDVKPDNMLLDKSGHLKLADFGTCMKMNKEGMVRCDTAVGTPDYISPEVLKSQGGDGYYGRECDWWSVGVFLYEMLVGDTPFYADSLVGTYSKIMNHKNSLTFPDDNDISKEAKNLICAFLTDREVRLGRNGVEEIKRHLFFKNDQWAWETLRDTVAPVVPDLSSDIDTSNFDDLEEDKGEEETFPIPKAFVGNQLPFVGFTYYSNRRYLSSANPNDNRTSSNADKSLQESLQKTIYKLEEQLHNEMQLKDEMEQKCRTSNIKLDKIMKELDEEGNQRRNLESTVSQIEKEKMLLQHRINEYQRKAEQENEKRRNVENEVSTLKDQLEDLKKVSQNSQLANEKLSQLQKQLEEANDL
Chain of Aurora-B (Q96GD4 whole entry): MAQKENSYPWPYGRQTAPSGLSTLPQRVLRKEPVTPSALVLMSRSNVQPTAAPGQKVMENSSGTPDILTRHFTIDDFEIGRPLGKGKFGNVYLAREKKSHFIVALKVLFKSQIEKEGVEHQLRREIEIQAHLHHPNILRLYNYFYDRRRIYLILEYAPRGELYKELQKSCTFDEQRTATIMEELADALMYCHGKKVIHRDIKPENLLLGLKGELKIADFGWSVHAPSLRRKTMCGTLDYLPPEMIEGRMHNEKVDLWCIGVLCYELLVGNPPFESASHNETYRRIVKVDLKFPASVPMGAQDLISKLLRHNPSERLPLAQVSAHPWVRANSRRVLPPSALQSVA

For COc1cnc2[nH]cc(-c3cccc(N4C[C@@H](C)N(C(C)=O)[C@@H](C)C4)n3)c2c1 [Compound 18], the Ki [1] was less than 500 nM, the Ki [2] was 500 to 5000 nM and the Ki [3] was 500 to 5000 nM.

With CC(=O)N1[C@H](C)CN(c2cccc(-c3c[nH]c4ncc(Cl)cc34)n2)C[C@@H]1C [Compound 19] the Ki [1] was less than 500 nM, the Ki [2] was less than 500 nM and the Ki [3] was less than 500 nM.

Molecule CCOC(=O)N1CCCN(c2nccc(-c3c[nH]c4ncc(OC)cc34)n2)CC1 [Compound 33] has a Ki [1] of less than 500 nM, a Ki [2] of less than 500 nM and a Ki [3] of less than 500 nM.

With COC(=O)c1cnc2[nH]cc(-c3cccc(N4C[C@@H](C)N(C(C)=O)[C@@H](C)C4)n3)c2c1 [Compound 35] the Ki [1] was less than 500 nM, the Ki [2] was less than 500 nM and the Ki [3] was less than 500 nM.

For C[C@H](Nc1nc(-c2c[nH]c3ncc(Cl)cc23)ncc1F)C(=O)NCC(F)(F)F [Compound 369], the Ki [4] was less than 500 nM, the Ki [3] was 500 to 5000 nM and the Ki [5] was less than 500 nM.

C[C@H](Nc1cccc(-c2c[nH]c3ncc(Cl)cc23)n1)c1ccc(F)cc1 [Compound 395] was tested, and the Ki [1] was less than 500 nM, the Ki [4] was less than 500 nM and the Ki [3] was 500 to 5000 nM.
